Results reported in article PMC6868653 (Pharmacology Research & Perspectives, 2019).
Numbering of substitutions follows the chain as printed. Values joined by “and” are separate entries in the source; they are usually repeats but may differ in a detail not shown here. Identical values can stand only once. Like-named read-outs stand apart in the source and are kept apart here.

Tests used:
[1] = molecular target: T1, hGPR132a (Homo sapiens, UniProt Q9UNW8); type: cell-based; details: for pEC50, Human GPR132a, Yeast: mean ± SD, IA = inactive, bound = top concentration tested; for Emax, Human GPR132a, Yeast: normalized to the effect of NPGly
T1 sequence (Q9UNW8 1-380): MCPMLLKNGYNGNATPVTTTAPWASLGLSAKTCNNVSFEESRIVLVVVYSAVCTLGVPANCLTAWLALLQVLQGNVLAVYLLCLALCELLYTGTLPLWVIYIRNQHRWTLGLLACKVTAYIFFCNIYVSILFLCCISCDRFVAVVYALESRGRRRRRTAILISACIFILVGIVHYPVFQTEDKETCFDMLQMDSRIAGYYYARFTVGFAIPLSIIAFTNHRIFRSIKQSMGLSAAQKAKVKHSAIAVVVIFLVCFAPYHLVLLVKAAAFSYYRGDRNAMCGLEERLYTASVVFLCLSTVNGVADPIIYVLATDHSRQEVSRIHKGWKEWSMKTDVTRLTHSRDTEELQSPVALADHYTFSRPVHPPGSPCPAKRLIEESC

[2] = molecular target: Rat GPR132 (Rattus norvegicus, UniProt A0A8I6A964); test: Yeast pheromone-response pathway reporter assay, yeast expressing rGPR132; type: cell-based; details: for pEC50, Rat GPR132, Yeast: mean ± SD; for Emax, Rat GPR132, Yeast: normalized to the effect of 9‐HODE
Chain of Rat GPR132 (A0A8I6A964 1-384): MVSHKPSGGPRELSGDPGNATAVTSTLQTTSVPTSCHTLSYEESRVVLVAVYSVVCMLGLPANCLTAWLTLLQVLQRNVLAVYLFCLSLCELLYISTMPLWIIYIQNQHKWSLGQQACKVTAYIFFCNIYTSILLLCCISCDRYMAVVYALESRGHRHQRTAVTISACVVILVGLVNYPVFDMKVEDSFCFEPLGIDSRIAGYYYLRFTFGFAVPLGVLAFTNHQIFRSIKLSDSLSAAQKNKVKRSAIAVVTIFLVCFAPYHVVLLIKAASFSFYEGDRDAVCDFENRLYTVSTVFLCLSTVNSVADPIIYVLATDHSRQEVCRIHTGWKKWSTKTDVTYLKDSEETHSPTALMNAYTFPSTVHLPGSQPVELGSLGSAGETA

[3] = molecular target: T2, Mouse GPR132 (Mus musculus, UniProt Q9Z282); test: β‐arrestin association; type: cell-based; details: for pEC50, Mouse GPR132, β‐arrestin: mean ± SD; for Emax, Mouse GPR132, β‐arrestin: normalized to the effect of SB‐583831
T2 sequence (Q9Z282 1-382): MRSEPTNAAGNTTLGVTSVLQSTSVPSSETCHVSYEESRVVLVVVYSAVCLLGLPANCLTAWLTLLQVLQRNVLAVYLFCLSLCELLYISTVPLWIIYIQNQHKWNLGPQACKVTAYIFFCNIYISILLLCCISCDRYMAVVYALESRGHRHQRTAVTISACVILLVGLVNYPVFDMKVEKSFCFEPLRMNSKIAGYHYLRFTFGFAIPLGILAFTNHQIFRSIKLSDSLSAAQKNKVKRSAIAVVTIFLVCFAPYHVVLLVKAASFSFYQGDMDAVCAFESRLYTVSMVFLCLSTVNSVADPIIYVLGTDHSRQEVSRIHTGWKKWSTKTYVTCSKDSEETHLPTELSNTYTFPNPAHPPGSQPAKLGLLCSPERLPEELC

[4] = molecular target: T1, hGPR132a; test: Ca2+ microfluorimetry in RBL‐hGPR132a cells; type: cell-based; details: 10 µmol/L ligand, mean ± SE
[5] = test system: parental RBL cells; test: Ca2+ microfluorimetry in parental RBL cells; type: cell-based, rat; details: 10 µmol/L ligand, mean ± SE
[6] = molecular target: T3, hGPR132a Y200A (Homo sapiens, UniProt Q9UNW8, Y200A); test: Yeast assay, hGPR132a mutant Y200A; details: mean ± SD
T3 sequence (Q9UNW8 1-380 Y200A): T1 sequence (Q9UNW8 1-380) with Y200A

[7] = molecular target: T1, hGPR132a; test: β‐arrestin association; type: cell-based; details: for pEC50, Human GPR132a, β‐arrestin: mean ± SD; for Emax, Human GPR132a, β‐arrestin: normalized to the effect of SB‐583831
[8] = molecular target: human CB2 (Homo sapiens, UniProt P34972); test: Yeast assay, specificity receptor human CB2; type: cell-based
Chain of human CB2 (P34972 whole entry): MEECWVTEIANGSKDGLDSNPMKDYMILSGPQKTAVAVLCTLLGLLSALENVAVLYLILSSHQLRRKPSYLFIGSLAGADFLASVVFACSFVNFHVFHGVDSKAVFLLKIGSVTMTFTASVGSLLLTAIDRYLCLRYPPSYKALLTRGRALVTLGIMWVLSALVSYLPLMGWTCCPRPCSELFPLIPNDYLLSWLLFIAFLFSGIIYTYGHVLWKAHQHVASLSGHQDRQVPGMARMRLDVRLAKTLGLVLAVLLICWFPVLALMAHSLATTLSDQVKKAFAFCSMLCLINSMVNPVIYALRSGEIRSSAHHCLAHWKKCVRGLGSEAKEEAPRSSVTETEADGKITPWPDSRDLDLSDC

[9] = test system: CB2; details: tested up to 10 µmol/L; cited from earlier work
[10] = molecular target: T4, hGPR132a R203A (Homo sapiens, UniProt Q9UNW8, R203A); test: Yeast assay, hGPR132a mutant R203A; details: mean ± SD
T4 sequence (Q9UNW8 1-380 R203A): T1 sequence (Q9UNW8 1-380) with R203A

[11] = molecular target: T1, hGPR132a; test: Yeast assay hGPR132a, antagonist mode / Schild analysis; type: cell-based; details: agonist SB‐583831

| Compound | pEC50, Human GPR132a, Yeast [1] | pEC50, Rat GPR132, Yeast [2] | Emax, Rat GPR132, Yeast [2] [%] | pEC50, Mouse GPR132, β‐arrestin [3] | Emax, Mouse GPR132, β‐arrestin [3] [%] | Emax, Human GPR132a, Yeast [1] | pEC50, Human GPR132a, β‐arrestin [7] | Emax, Human GPR132a, β‐arrestin [7] | other results |
| --- | --- | --- | --- | --- | --- | --- | --- | --- | --- |
| CCCCC/C=C\C=C\C(O)CCCCCCCC(=O)O (stereo not shown) [9‐HODE, 9‐hydroxyoctadecadienoic acid] | 5.9 ± 0.14 (4) | 6.2 ± 0.12 (5) | 100 | 5.6 ± 0.23 (5) | 97 ± 6 | – | – | – | Ca2+ transient, peak response [4]: 0.122 ± 0.016 ratio units; Ca2+ transient, peak response [5]: 0.023 ± 0.003 ratio units |
| CCCCCCC(C)(C)c1ccc([C@@H]2C[C@H](O)CC[C@H]2CCCO)c(O)c1 [CP‐55,940] | – | – | – | – | – | full agonists | – | – | EC50 [1]: 3.16 µM; Emax ([1]; read-out: Emax, Human GPR132a, Yeast): 102 ± 3%; EC50 [2]: > 3.16 µM; pEC50, Y200A [6]: abolished |
| CCCCC/C=C\C/C=C\CCCCCCCC(N)=O [Linoleamide, linoleamide] | 5.8 ± 0.01 (3) | 5.9 ± 0.21 (2) | 37 ± 5 | <5 (1) | – | 79 ± 11% | 5.5 (1) | 22% | – |
| CCCCC/C=C\C/C=C\CCCCCCCC(=O)O [Linoleic acid] | – | – | – | – | – | – | – | – | EC50 [1]: > 100 µM; agonist activity at hGPR132a in yeast ([1]; tested up to 100 µmol/L): no detectable agonist activity; EC50 [7]: > 10 µM |
| CCCCC/C=C\C/C=C\C/C=C\C/C=C\CCCC(=O)NCC(=O)O [NAGly, N‐arachidonoylglycine] | <4.5 (3) | 5.3 ± 0.09 (4) | 87 ± 12 | – | – | 38% | – | – | Emax, CB2, yeast [8]: 17±2%; pEC50, CB2, yeast [8]: 5.6 ± 0.3; binding to CB2 [9]: does not bind |
| CCCCC/C=C\C/C=C\C/C=C\C/C=C\CCCC(=O)N[C@@H](Cc1ccc(O)cc1)C(=O)O [NATyr, N‐arachidonyltyrosine] | – | <4 (3) | – | – | – | – | – | – | – |
| CC/C=C\C/C=C\C/C=C\C/C=C\C/C=C\C/C=C\CCC(=O)NCC(=O)O [NDGly, N‐docosahexanoylglycine] | <4.4 (4) | – | – | – | – | 33% | <5 (2) | – | – |
| CCCCC/C=C\C/C=C\CCCCCCCC(=O)NCC(=O)O [NLGly, N‐linoleoylglycine] | 5.8 ± 0.08 (3) | 6.5 ± 0.36 (4) | 68 ± 7 | 5.3 (1) | 40 | 84 ± 6% | 5.5 ± 0.23 (2) | 39±4% and 38 ± 4% | Ca2+ transient, peak response [4]: 0.138 ± 0.03 ratio units; Ca2+ transient, peak response [5]: 0.040 ± 0.008 ratio units; pEC50, R203A [10]: abolished responses |
| CCCCCCCC/C=C\CCCCCCCC(=O)NCC(=O)O [NOGly, N‐oleoylglycine] | 5.1 ± 0.24 (3) | – | – | 5.3 ± 0.05 (2) | 44 ± 10 | 95 ± 6% | 5.6 ± 0.18 (2) | 29 ± 15% | pEC50, R203A [10]: eliminated the activity |
| CCCCCCCC/C=C\CCCCCCCC(=O)N[C@@H](CO)C(=O)O [NOSer, N‐oleoylserine] | 5.8 ± 0.07 (4) | – | – | – | – | 21 ± 5% | – | – | – |
| CCCCCCCCCCCCCCCC(=O)NCC(=O)O [NPGly, N‐palmitoylglycine] | 6.2 ± 0.16 (7) | 7.0 ± 0.12 (4) | 53 ± 14 | <5 (2) | 11 | – | <5 (3) | 14% | pEC50, R203A [10]: abolished responses |
| CCCCCCCCCCCCCCCCCC(=O)NCC(=O)O [NSGly, N‐stereoylglycine] | 5.1 ± 0.08 (3) | – | – | <5 (1) | – | 80 ± 4% | 5.4 (1) | 23% | – |
| CCCc1nc2c(C)cc(-c3nc4ccccc4n3C)cc2n1Cc1ccc(-c2ccccc2C(=O)O)cc1 [telmisartan] | – | – | – | – | – | – | – | – | Schild Hill slope nH [11]: 1.9 |
